From article PMC4152272 (PLoS ONE, 2014)

Columns and labels:
[1] = tested on: T1, N188 (Novozyme 188 BGL); experiment: glucose release, glucose assay reagent, […] nm; type: biochemical; settings: 50 mM acetate pH 5.0
T1 construct: gene bglA; commercial preparation Novozyme 188 (Novozymes), partially purified; N-glycosylated

[2] = tested on: T1, N188 (Novozyme 188 BGL); experiment: p-nitrophenol release, […] nm, nonlinear least squares; type: biochemical; settings: 50 mM acetate pH 5.0, 50°C, 1 min

Km [1]	Km [2]	Structure (SMILES)
2530 ± 506 µM	–	OC[C@H]1O[C@@H](O[C@H]2[C@H](O)[C@@H](O)C(O)O[C@@H]2CO)[C@H](O)[C@@H](O)[C@@H]1O (some centres unmarked) [cellobiose]
–	1250 ± 164 µM	O=[N+]([O-])c1ccc(O[C@@H]2O[C@H](CO)[C@@H](O)[C@H](O)[C@H]2O)cc1 [pNPG, p-nitrophenyl β-D-glucopyranoside]
